ChEMBL document CHEMBL6182916, “Unexpected Discovery of a Novel Triphenylphosphonium Alkylalcohol That Triggers Cancer Cell Death via Mitophagy and Ferroptosis” (J Med Chem, 2025)
Activity calls are given as the source filed them. The rule behind the calls is not given here.

Key:
A549 = assay: Antiproliferative activity against human A549 cells assessed as inhibition of cell growth measured after 72 hrs by MTT assay; type: functional, cell-based; conditions: A549, 72 h
[1] = Toxicity in male Kunming mouse assessed as animal death at 70 mg/kg, ip measured every two days for 7 days; type: organism-based; conditions: in vivo, 168 h, time 7 day
HEK-293T [2] = assay: Downregulation of TIMM23 expression level in human HEK293T cells; type: functional, cell-based; conditions: dose 0.25-0.5 µM
HCC827 [3] = assay: Induction of mitochondrial dysfunction in human HCC827 cells assessed as suppression of maximal oxygen consumption rate incubated for 4 hrs by Seahorse XF96 extracellular flux analyzer; type: functional, cell-based; conditions: dose 0.125-5 µM
BEAS-2B = assay: Inhibition of colony formation in human BEAS-2B cells at 0.05 to 0.1 uM incubated for 72 hrs by crystal violet staining based analysis; type: functional, cell-based; conditions: dose 0.05-0.1 µM
HCC827 [4] = assay: Effect on NDUFB8 expression in human HCC827 cells at 0.25 to 0.5 uM; type: functional, cell-based; conditions: dose 0.25-0.5 µM
HCC827 [5] = assay: Induction of apoptosis in human HCC827 cells assessed as viable cells at 1 uM measured after 24 hrs by annexin V and PI staining based flow cytometry analysis (reference value: 95.10%); type: functional; conditions: read-out: Activity
HCC827 [6] = assay: Induction of cell cycle arrest in human HCC827 assessed as increase in p21 expression level at 0.25 to 5 uM measured after 24 hrs by Western blot analysis; type: functional, cell-based; conditions: dose 0.25-5 µM
HCC827 [7] = assay: Induction of apoptosis in human HCC827 cells assessed as early apoptotic cells at 1 uM measured after 48 hrs by annexin V and PI staining based flow cytometry analysis (reference value: 0.70%); type: functional
HCC827 [8] = assay: Induction of apoptosis in human HCC827 cells assessed as necrotic cells at 1 uM measured after 24 hrs by annexin V and PI staining based flow cytometry analysis (Rvb =0.84%); type: functional
HCC827 [9] = assay: Induction of apoptosis in human HCC827 cells assessed as viable cells at 0.25 uM measured after 48 hrs by annexin V and PI staining based flow cytometry analysis (reference value: 96.74%); type: functional; conditions: read-out: Activity
HCC827 [10] = assay: Antitumor activity against human HCC827 cells xenografted in female nude mouse model assessed as reduction in tumor size at 5 to 10 mg/kg, ip measured every two days for 14 days; type: functional, organism-based; conditions: dose 5-10 mg/kg, time 14.0 day
HCC827 [11] = assay: Induction of cell cycle arrest in human HCC827 cells assessed as accumulation of cells at G1 phase incubated for 24 hrs by PI staining based flow cytometry analysis; type: functional; conditions: dose 0.1-0.4 µM
[12] = Toxicity in male Kunming mouse assessed as change in body weight at 50 mg/kg, ip measured every two days for 7 days; type: organism-based; conditions: in vivo, 168 h, time 7 day
NCI-H1299 = assay: Antiproliferative activity against human NCI-H1299 cells assessed as inhibition of cell growth measured after 72 hrs by MTT assay; type: functional, cell-based; conditions: NCI-H1299, 72 h
[13] = Toxicity in female BALB/c mouse assessed as histopathological changes in spleen at 30 mg/kg, ip measured for 7 days by H and E staining based analysis; type: organism-based; conditions: in vivo, 168 h, time 7 day
[14] = Toxicity in female BALB/c mouse assessed as histopathological changes in liver at 30 mg/kg, ip measured for 7 days by H and E staining based analysis; type: organism-based; conditions: in vivo, 168 h, time 7 day
[15] = Toxicity in male Kunming mouse assessed as change in body weight at 70 mg/kg, ip measured every two days for 7 days; type: organism-based; conditions: in vivo, 168 h, time 7 day
HCC827 [16] = assay: Induction of apoptosis in human HCC827 cells assessed as necrotic cells at 0.25 uM measured after 48 hrs by annexin V and PI staining based flow cytometry analysis (reference value: 1.18%); type: functional
HCC827 [17] = assay: Antiproliferative activity against human HCC827 cells assessed as cell viability at 1 uM measured after 48 hrs in presence of SAS by MTT assay relative to control; type: functional; conditions: read-out: Activity
HCC827 [18] = assay: Induction of apoptosis in human HCC827 cells assessed as late apoptotic cells at 0.5 uM measured after 48 hrs by annexin V and PI staining based flow cytometry analysis (reference value: 1.29%; type: functional
HEK-293T [19] = assay: Downregulation of TIMM23 expression level in human HEK293T cells harbouring PINK knockout at 0.25 to 0.5 uM; type: functional, cell-based; conditions: dose 0.25-0.5 µM
HCC827 [20] = assay: Induction of cell cycle arrest in human HCC827 cells assessed as accumulation of cells at S phase at 0.2 uM incubated for 24 hrs by PI staining based flow cytometry analysis (reference value: 26.41%); type: functional
HCC827 [21] = assay: Induction of cell cycle arrest in human HCC827 cells assessed as accumulation of cells at S phase at 0.1 uM incubated for 24 hrs by PI staining based flow cytometry analysis (reference value: 26.41%); type: functional
HCC827 [22] = assay: Induction of mitochondrial dysfunction in human HCC827 cells assessed as cytochrome C release in cytoplasm at 0.4 uM by laser scanning confocal fluorescence microscopic analysis; type: functional, cell-based; conditions: time 24-72 hrs
HEK-293T [23] = assay: Downregulation of […] expression level in human HEK293T cells harbouring PINK knockout at 0.25 to 0.5 uM; type: functional, cell-based; conditions: dose 0.25-0.5 µM
HCC827 [24] = assay: Induction of mitophagy in human HCC827 cells assessed as increase in LC3-II/LC-3-I ratio at 0.5 uM measured after 24 hrs in presence of Baf A1 by Western blot analysis; type: functional, cell-based

Cc1ccc([P+](CCCCCCCCCCO)(c2ccc(C)cc2)c2ccc(C)cc2)cc1.[Br-]
IC50 (A549): 0.49 µM
Activity [1]: Toxic
Activity (HEK-293T [2]): Dose-dependent-effect
Activity (HCC827 [3]): Dose-dependent-effect
inhibition (BEAS-2B): Minimal_effect
Activity (HCC827 [4]): Active
viability at 1 µM (HCC827 [5]): 93.6%
Activity (HCC827 [6]): Active
Activity (HCC827 [7]): 5.85%
Activity (HCC827 [8]): 1.47%
viability at 0.25 µM (HCC827 [9]): 92.6%
Activity (HCC827 [10]): Active
Activity (HCC827 [11]): Dose-dependent-effect
Activity [12]: Toxic
IC50 (NCI-H1299): 0.21 µM
Activity [13]: Non-toxic
Activity [14]: Non-toxic
Activity [15]: Toxic
Activity (HCC827 [16]): 2.91%
viability at 1 µM (HCC827 [17]): 7.48%
Activity (HCC827 [18]): 7.12%
Activity (HEK-293T [19]): inactive
Activity (HCC827 [20]): 19.35%
Activity (HCC827 [21]): 24.03%
Activity (HCC827 [22]): Time-dependent-effect
Activity (HEK-293T [23]): inactive
Activity (HCC827 [24]): inactive
